Results taken from patent publication US20250034498A1, “MICROFLUIDIC DEVICES” (Ecole Polytechnique Federale de Lausanne, priority 2021, published 2025).
Entries after “also recorded” stand apart in the source; their conditions may differ.

B1: Bone Morphogenetic Protein 4 (protein, UniProt P12644 293-408, looked up)
Bone morphogenetic protein 4: SPKHHSQRARKKNKNCRRHSLYVDFSDVGWNDWIVAPPGYQAFYCHGDCPFPLADHLNSTNHAIVQTLVNSVNSSIPKACCVPTELSAISMLYLDEYDKVVLKNYQEMVVEGCGCR
notes: dorsalizing morphogen

Tested on: neural tube organoids
Experiment: dorsal-ventral patterning of neural tube organoids at the gradient window of the microfluidic device
Format: cell-based
Settings: for identity of neural tube organoid (PAX3/7 dorsal marker, OLIG2 ventral marker): D6 organoids exposed 18 hours; for spatial patterning of neural tube organoid (PAX3/7 dorsal marker, OLIG2 ventral marker): anti-parallel gradient 1.6 nM BMP4 (L)-500 nM SAG (R), 18 hours
Experimental: In the present example, the organoid of interest was cultured in a Matrigel™ drop for six days then harvested, and the organoid was suspended in Matrigel™ and loaded into the culture chamber 130 and placed at the gradient window 150 via the loading channel 170. A small drop of N2B27 medium was placed in each of the first and second medium chambers or reservoirs 110, 120 for humidification, and the chip was incubated in a 5% CO2 and 37° C. incubator for 5 minutes to allow the Matrigel™ to polymerise. After incubation, the first and second chambers 110, 120 were filled with N2B27 medium supplemented with 1.6 nM of BMP4 as a dorsal morphogen and 500 nM of SAG as a ventral morphogen respectively, and residual air in the device was removed from the first and second air outlets 140-1, 140-2 to allow the morphogen-supplemented media to diffuse across the gradient window 150. The device containing the organoid was incubated in a 5% CO2 and 37° C. incubator for 18 hours.
A neural tube organoid was placed in the gradient window of the device where a dorsal-ventral morphogen gradient has developed, using BMP4 as a dorsal morphogen and SAG as a ventral morphogen. PAX3/7 was used as a marker for dorsal fate neural tube cell and OLIG2 was used as a marker for ventral fate neural tube cell.
As described above, the neural tube organoids from D6 were introduced in the microfluidic device and exposed to different morphogen gradients for 18 hours. All scale bars are 100 μm.

Row | Molecule | identity of neural tube organoid (PAX3/7 dorsal marker, OLIG2 ventral marker) (N2B27 (L)-500 nM SAG (R)) | spatial patterning of neural tube organoid (PAX3/7 dorsal marker, OLIG2 ventral marker) | identity of neural tube organoid (PAX3/7 dorsal marker, OLIG2 ventral marker) (1.6 nM BMP4 (L)-N2B27 (R))
1 | CNC1CCC(N(Cc2cccc(-c3ccncc3)c2)C(=O)c2sc3ccccc3c2Cl)CC1 (stereo not shown) [SAG] | dominant ventral identity expressing OLIG2 | OLIG2 positive cells were biased towards the SAG source; also recorded: OLIG2 biased to right side | –
2 | B1 | – | PAX3/7 positive cells were biased towards the BMP4 source; also recorded: PAX3/7 biased to the left side | dorsal identity expressing PAX3/7
